Measurements: ChEMBL document CHEMBL5257062, “Synthesis, in vitro cytotoxicity evaluation and mechanism of 5' monosubstituted chalcone derivatives as antitumor agents” (Bioorg Med Chem Lett, 2023)
Active and inactive are the calls of the source. The rule behind the calls is not given here.

Columns and labels:
[1] = tested on: K562; test: Cytotoxicity against human K562 cells by MTT assay; type: functional, cell-based
[2] = tested on: HepG2; test: Cytotoxicity against human HepG2 cells by MTT assay; type: functional, cell-based
[3] = tested on: HT-29; test: Cytotoxicity against human HT-29 cells by MTT assay; type: functional, cell-based
[4] = tested on: MDA-MB-231; test: Cytotoxicity against human MDA-MB-231 cells; type: functional, cell-based
[5] = Cytotoxicity against HEK293T cells; type: toxicity, cell-based, HEK-293T; details: human
[6] = Cytotoxicity against HUVEC cells; type: toxicity, cell-based; details: human
[7] = tested on: HCT-116; test: Cytotoxicity against human HCT-116 cells; type: functional, cell-based
[8] = tested on: K562; test: Induction of apoptosis in human K562 cells at 2 uM after 12 hrs by annexin V-FITC and PI staining based method (reference value: 8.4%); type: functional
[9] = tested on: K562; test: Induction of apoptosis in human K562 cells at 20 uM after 12 hrs by annexin V-FITC and PI staining based method (reference value: 8.4%); type: functional
[10] = tested on: K562; test: Induction of apoptosis in human K562 cells at 2 uM after 24 hrs by annexin V-FITC and PI staining based method (reference value: 9%); type: functional
[11] = tested on: K562; test: Induction of apoptosis in human K562 cells at 20 uM after 24 hrs by annexin V-FITC and PI staining based method (reference value: 9%); type: functional
[12] = tested on: K562; test: Induction of apoptosis in human K562 cells at 2 uM after 48 hrs by annexin V-FITC and PI staining based method (reference value: 9.8%); type: functional
[13] = tested on: K562; test: Induction of apoptosis in human K562 cells at 20 uM after 48 hrs by annexin V-FITC and PI staining based method (reference value: 9.8%); type: functional
[14] = tested on: K562; test: Induction of apoptosis in human K562 cells assessed as appearance of apoptotic bodies at 2 to 20 uM by light microscopic analysis; type: functional, cell-based; details: dose 2-20 µM, TDE = time-dependent effect
[15] = tested on: K562; test: Induction of apoptosis in human K562 cells assessed as inhibition of cell growth at 2 to 20 uM; type: functional, cell-based; details: dose 2-20 µM, time 12-72 hrs, TDE = time-dependent effect
[16] = tested on: K562; test: Induction of apoptosis in human K562 cells assessed as inhibition of cell growth after 12 to 72 hrs; type: functional, cell-based; details: dose 0.2-20 µM, time 12-72 hrs
[17] = tested on: K562; test: Induction of cell cycle arrest in human K562 cells assessed as accumulation of cells at G1 phase at 2 uM incubated for 6 hrs by flow cytometry (reference value: 57.73%); type: functional
[18] = tested on: K562; test: Induction of cell cycle arrest in human K562 cells assessed as accumulation of cells at G1 phase at 20 uM incubated for 6 hrs by flow cytometry (reference value: 57.73%); type: functional
[19] = tested on: K562; test: Induction of cell cycle arrest in human K562 cells assessed as accumulation of cells at G2 phase at 2 uM incubated for 6 hrs by flow cytometry (reference value: 13.40%); type: functional
[20] = tested on: K562; test: Induction of cell cycle arrest in human K562 cells assessed as accumulation of cells at G2 phase at 20 uM incubated for 6 hrs by flow cytometry (reference value: 13.40%); type: functional
[21] = tested on: K562; test: Induction of cell cycle arrest in human K562 cells assessed as accumulation of cells at S phase at 2 uM incubated for 6 hrs by flow cytometry (reference value: 28.87%); type: functional
[22] = tested on: K562; test: Induction of cell cycle arrest in human K562 cells assessed as accumulation of cells at S phase at 20 uM incubated for 6 hrs by flow cytometry (reference value: 28.87%); type: functional
[23] = tested on: K562; test: Induction of cell cycle arrest in human K562 cells assessed as accumulation of cells at G1 phase at 2 uM incubated for 12 hrs by flow cytometry (reference value: 71.17%); type: functional
[24] = tested on: K562; test: Induction of cell cycle arrest in human K562 cells assessed as accumulation of cells at G1 phase at 20 uM incubated for 12 hrs by flow cytometry (reference value: 71.17%); type: functional
[25] = tested on: K562; test: Induction of cell cycle arrest in human K562 cells assessed as accumulation of cells at G2 phase at 2 uM incubated for 12 hrs by flow cytometry (reference value: 11.93%); type: functional
[26] = tested on: K562; test: Induction of cell cycle arrest in human K562 cells assessed as accumulation of cells at G2 phase at 20 uM incubated for 12 hrs by flow cytometry (reference value: 11.93%); type: functional
[27] = tested on: K562; test: Induction of cell cycle arrest in human K562 cells assessed as accumulation of cells at S phase at 2 uM incubated for 12 hrs by flow cytometry (reference value: 16.9%); type: functional
[28] = tested on: K562; test: Induction of cell cycle arrest in human K562 cells assessed as accumulation of cells at S phase at 20 uM incubated for 12 hrs by flow cytometry (reference value: 16.9%); type: functional
[29] = tested on: K562; test: Induction of cell cycle arrest in human K562 cells assessed as accumulation of cells at G1 phase at 2 uM incubated for 24 hrs by flow cytometry (reference value: 82.22%); type: functional
[30] = tested on: K562; test: Induction of cell cycle arrest in human K562 cells assessed as accumulation of cells at G1 phase at 20 uM incubated for 24 hrs by flow cytometry (reference value: 82.22%); type: functional
[31] = tested on: K562; test: Induction of cell cycle arrest in human K562 cells assessed as accumulation of cells at G2 phase at 2 uM incubated for 24 hrs by flow cytometry (reference value: 0.27%); type: functional
[32] = tested on: K562; test: Induction of cell cycle arrest in human K562 cells assessed as accumulation of cells at G2 phase at 20 uM incubated for 24 hrs by flow cytometry (reference value: 0.27%); type: functional
[33] = tested on: K562; test: Induction of cell cycle arrest in human K562 cells assessed as accumulation of cells at S phase at 2 uM incubated for 24 hrs by flow cytometry (reference value: 17.51%); type: functional
[34] = tested on: K562; test: Induction of cell cycle arrest in human K562 cells assessed as accumulation of cells at S phase at 20 uM incubated for 24 hrs by flow cytometry (reference value: 17.51%); type: functional
[35] = tested on: HepG2; test: Inhibition of cell migration human HepG2 cells assessed as migration distance at 0.3 uM incubated for 12 hrs by wound healing assay (reference value: 566.76 micrometer); type: functional
[36] = tested on: HepG2; test: Inhibition of cell migration human HepG2 cells assessed as migration distance at 1 uM incubated for 12 hrs by wound healing assay (reference value: 566.76 micrometer); type: functional
[37] = tested on: HepG2; test: Inhibition of cell migration human HepG2 cells assessed as migration distance at 3 uM incubated for 12 hrs by wound healing assay (reference value: 566.76 micrometer); type: functional
[38] = tested on: HepG2; test: Inhibition of cell migration human HepG2 cells assessed as migration distance at 0.3 uM incubated for 24 hrs by wound healing assay (reference value: 424.41 micrometer); type: functional
[39] = tested on: HepG2; test: Inhibition of cell migration human HepG2 cells assessed as migration distance at 1 uM incubated for 24 hrs by wound healing assay (reference value: 424.41 micrometer); type: functional
[40] = tested on: HepG2; test: Inhibition of cell migration human HepG2 cells assessed as migration distance at 3 uM incubated for 24 hrs by wound healing assay (reference value: 424.41 micrometer); type: functional
[41] = tested on: HepG2; test: Inhibition of cell migration human HepG2 cells assessed as migration distance at 0.3 uM incubated for 36 hrs by wound healing assay (reference value: 243.56 micrometer); type: functional
[42] = tested on: HepG2; test: Inhibition of cell migration human HepG2 cells assessed as migration distance at 1 uM incubated for 36 hrs by wound healing assay (reference value: 243.56 micrometer); type: functional
[43] = tested on: HepG2; test: Inhibition of cell migration human HepG2 cells assessed as migration distance at 3 uM incubated for 36 hrs by wound healing assay (reference value: 243.56 micrometer); type: functional
[44] = tested on: HepG2; test: Inhibition of cell migration human HepG2 cells assessed as migration distance at 0.3 uM incubated for 48 hrs by wound healing assay (reference value: 0 micrometer); type: functional
[45] = tested on: HepG2; test: Inhibition of cell migration human HepG2 cells assessed as migration distance at 1 uM incubated for 48 hrs by wound healing assay (reference value: 0 micrometer); type: functional
[46] = tested on: HepG2; test: Inhibition of cell migration human HepG2 cells assessed as migration distance at 3 uM incubated for 48 hrs by wound healing assay (reference value: 0 micrometer); type: functional
[47] = tested on: HepG2; test: Inhibition of cell migration human HepG2 cells at 0.3 to 3 uM incubated for 48 hrs by Transwell assay; type: functional, cell-based; details: dose 0.3-3 µM

`COc1cc(OC)c(-c2ccc(OC(C)=O)cc2)cc1C(=O)/C=C/c1ccccc1` showed an IC50 [1] greater than 10 µM, an IC50 [2] greater than 10 µM and an IC50 [3] greater than 10 µM.
In the case of `COc1cc(OC)c(-c2ccc(C(F)(F)F)cc2)cc1C(=O)/C=C/c1ccccc1`, the IC50 [1] is reported as 8.7 µM, the IC50 [2] is reported as greater than 10 µM and the IC50 [3] is reported as greater than 10 µM.
For `COc1ccc(-c2cc(C(=O)/C=C/c3ccccc3)c(OC)cc2OC)cc1`, the IC50 [1] was 7.26 µM, the IC50 [2] was greater than 10 µM and the IC50 [3] was greater than 10 µM.
`COc1cc(OC)c(-c2ccccc2)cc1C(=O)/C=C/c1ccccc1` showed an IC50 [1] of 3.83 µM, an IC50 [2] greater than 10 µM and an IC50 [3] of 9.17 µM.
In the case of `COc1cc(OC)c(-c2ccc(-c3ccco3)cc2)cc1C(=O)/C=C/c1ccccc1`, the IC50 [1] is reported as 4.69 µM, the IC50 [2] is reported as 5.91 µM and the IC50 [3] is reported as 6.17 µM.
In the case of `CC[C@@]1(O)C(=O)OCc2c1cc1n(c2=O)Cc2cc3ccccc3nc2-1` [CAMPTOTHECIN], the IC50 [1] is reported as 0.04 µM, the IC50 [2] is reported as 0.02 µM and the IC50 [3] is reported as 0.07 µM. It also gave an IC50 [4] greater than 100 µM, an IC50 [5] of 0.03 µM and an IC50 [6] of 0.06 µM.
For `COc1cc(OC)c(-c2ccc(C)cc2)cc1C(=O)/C=C/c1ccccc1`, the IC50 [1] was 2.59 µM, the IC50 [2] was greater than 10 µM and the IC50 [3] was 9.29 µM.
For `COc1cc(OC)c(-c2ccc(C#N)cc2)cc1C(=O)/C=C/c1ccccc1`, the IC50 [1] was greater than 10 µM, the IC50 [2] was greater than 10 µM and the IC50 [3] was greater than 10 µM.
For `COc1cc(OC)c(-c2ccc(F)cc2)cc1C(=O)/C=C/c1ccccc1`, the IC50 [1] was 1.97 µM, the IC50 [2] was 2.23 µM and the IC50 [3] was 7.69 µM. The IC50 [7] was 5.17 µM, the IC50 [4] was 10.7 µM and the IC50 [5] was 5.19 µM. It also gave an IC50 [6] of 19.7 µM, an Activity [8] of 8.1% and an Activity [9] of 11.9%. For the same compound, the Activity [10] was 12%, the Activity [11] was 19.8% and the Activity [12] was 32%. The Activity [13] was 62.6%, the Activity [14] was “Tde” and the Activity [15] was “Tde”. For the same compound, the Activity [16] was “Dose-Dependent Effect”, the Activity [17] was 58.77% and the Activity [18] was 60.44%. It also gave an Activity [19] of 11.61%, an Activity [20] of 9.25% and an Activity [21] of 29.62%. It also gave an Activity [22] of 30.33%, an Activity [23] of 58.31% and an Activity [24] of 52.57%. The Activity [25] was 12.29%, the Activity [26] was 10.88% and the Activity [27] was 29.39%. The Activity [28] was 36.55%, the Activity [29] was 54.29% and the Activity [30] was 54.29%. For the same compound, the Activity [31] was 7.97%, the Activity [32] was 1.33% and the Activity [33] was 37.74%. For the same compound, the Activity [34] was 44.38%, the Activity [35] was 532.4 um and the Activity [36] was 551.11 um. The Activity [37] was 534.71 um, the Activity [38] was 438 um and the Activity [39] was 486.95 um. It also gave an Activity [40] of 488.94 um, an Activity [41] of 294.54 um and an Activity [42] of 401.52 um. It also gave an Activity [43] of 423.28 um, an Activity [44] of 245.7 um and an Activity [45] of 301.44 um. The Activity [46] was 337.11 um and the inhibition [47] was “Active”.
